Experimental data published in patent US12202868B1, “Stapled and specifically targeted antimicrobial peptide” (KING SAUD UNIVERSITY, priority 2024, dated 2025).
Converted amounts (≈) assume the structure as drawn. Read-outs that look alike come from different tables or passages of the source. Positions of bridges follow the written chain, without caps; N, C: chain ends. Non-standard residues stand in square brackets, D forms with d. Residues, ends and D or L forms follow the SMILES beside them. S5 = C=CCCC[C@](C)(N)C(=O)O

Experiments:
S. pneumonia [1] = tested on: S. pneumonia
S. mutans [2] = tested on: S. mutans
Staphylococcus aureus = test: microbe, parasite or virus in culture; type: cell-based; conditions: S. aureus, 30 μl in 6 mm well, ssTAMP 100 μg/ml, Kanamycin 10 μg/ml, 24 hours, mean±SD, n=3
Experimental: (§1) Microbial cultures were procured from the microbiology department, College of Pharmacy, King Saud University, Riyadh. Strains were grown aerobically at 37° C. with shaking in Muller Hilton media.
(§2) The agar diffusion method was used to examine the synthesized ssTAMP's antibacterial activity. Pure colonies of Bacillus subtilis, Streptococcus pneumonia, Staphalycoccus aureus, Streptococcus mutans, Escherichia coli, and Kleibsella pneumonia were used for antibacterial susceptibility testing according to Clinical Laboratory Standards Institute (CLSI) 2021 guidelines by using a modified Kirby-Bauer disk diffusion technique. In brief, homogeneous colonies were chosen from each microbial strain and grown on Mullar Hilton broth at log phase. 0.5 McFarland standard culture was used to spread on to the Mullar Hilton agar plates. Freshly prepared 30 μl each of Kanamycin 10 μg/ml and ssTAMP 100 μg/ml was poured into 6 mm diameter well, blank well with equivalent amount of saline served as a […]. The plates were incubated for 24 hours, and the diameter of the inhibition zone was measured to determine if the findings were susceptible or resistant. The full analysis was carried out three times.
(§3) The agar diffusion method was used to test antimicrobial susceptibility of sSTAMP against B. Subtilis, S. Pneumoniae, S. Aureus, S. Mutans, E. Coli, and Kleibsella pneumonia strains (FIG. 1).

Bacillus subtilis = test: microbe, parasite or virus in culture; type: cell-based; conditions: B. subtilis, 30 μl in 6 mm well, ssTAMP 100 μg/ml, Kanamycin 10 μg/ml, 24 hours, mean±SD, n=3
Experimental: as §1, §2, §3

Streptococcus pneumonia = test: microbe, parasite or virus in culture; type: cell-based; conditions: S. pneumonia, 30 μl in 6 mm well, ssTAMP 100 μg/ml, Kanamycin 10 μg/ml, 24 hours, mean±SD, n=3
Experimental: as §1, §2, §3

Streptococcus mutans = test: microbe, parasite or virus in culture; type: cell-based; conditions: S. mutans, 30 μl in 6 mm well, ssTAMP 100 μg/ml, Kanamycin 10 μg/ml, 24 hours, mean±SD, n=3
Experimental: as §1, §2, §3

Escherichia coli = test: microbe, parasite or virus in culture; type: cell-based; conditions: E. coli, 30 μl in 6 mm well, ssTAMP 100 μg/ml, Kanamycin 10 μg/ml, 24 hours, mean±SD, n=3
Experimental: as §1, §2, §3

Kleibsella pneumonia [3] = tested on: Kleibsella pneumonia
A549 lung cancer cells = type: cell-based; conditions: human, 24 h
Experimental: (§4) MCF-7 and A549 cells were cultured under aseptic conditions at 37° C. and 5% CO2 using Dulbecco's Modified Eagle's Medium (DMEM), accompanied with 1% mixture of “Penicillin-Streptomycin”, and 10% Fetal Bovine Serum (FBS). The cells were processed and grown in a sterile environment and all the procedures were done in a biosafety cabinet. The cells were harvested using 0.25% trypsin containing EDTA and phenol red, once they reached around 80% confluency. To test the in-vitro toxicity of the antimicrobial peptide, the harvested cells were seeded in 96 well plates for conducting a cell viability assay using MTT (3-(4,5-dimethylthiazol-2-yl)-2,5-diphenyl tetrazolium bromide).
(§5) In order to investigate the in-vitro cytotoxicity of ssTAMP using the MTT assay, cell viability was carried out in MCF-7 and A549 cells. To achieve a cell density of 5×10^5 cells/mL, trypsin was introduced to the cells during their exponential phase of growth. After that, 100 μL of media and the cell suspension (15000 cells/well) were placed on a flat-bottomed microplate, where they were left to attach to the bottom overnight. The following day, 10 μL of freshly prepared medium containing ssTAMP concentrations ranging from 7.81 to 1000 µg/mL was added to the preexisting medium. As a negative control, a triplicate of untreated, FBS-free DMEM were used. Each product's dilution was tested three times. After 24 hours, the media was carefully removed from the wells. After that, 10 μL of MTT solution (5 mg/mL in PBS) and 90 μL of the medium were added. After that, this combination was incubated for 4 hours at room temperature. The medium and MTT in the culture fluid were then drawn out, leaving the formazan crystal precipitate. Formazan was dissolved for 15 minutes at room temperature in a […]. At 570 nm, the absorbance was measured (Synergy HT, BioTek Inst., VT, USA). Cell viability was calculated as a percentage of the absorbance when compared with negative control considered as 100%. The cytotoxic effects of ssTAMP on MCF-7 and A549 cells were expressed as IC50 values.
(§6) The percentage cell viabilities of MCF-7 breast cancer cells and A549 lung cancer cells against varying concentrations of ssTAMP are presented in FIGS. 3A-3B. […] The cytotoxicity starts to appear at the lowest concentration of ssTAMP used (7.81 μg/mL in MCF-7, and 15.62 μg/mL in A549). The effect pattern of the ssTAMP in both the cell lines is similar up to the concentration of 250 μg/mL. However MCF-7 appear to be more sensitive at higher concentrations of ssTAMP above 250 μg/mL.

[4] = tested on: MCF-7 breast cancer cells; type: cell-based; conditions: human, 24 h
Experimental: as §4, §5, §6

S. aureus [5] = tested on: S. aureus
E. coli [6] = tested on: E. coli
B. subtilis [7] = tested on: B. subtilis
Kleibsella pneumonia [8] = test: organism not typed; type: cell-based; conditions: 30 μl in 6 mm well, ssTAMP 100 μg/ml, Kanamycin 10 μg/ml, 24 hours, mean±SD, n=3
Experimental: as §1, §2, §3

S. mutans [9] = test: microbe, parasite or virus in culture; conditions: Streptococcus mutans, read-out: Minimum Inhibitory concentration
E. coli [10] = test: microbe, parasite or virus in culture; conditions: Escherichia coli, read-out: Minimum Inhibitory concentration
S. aureus [11] = test: microbe, parasite or virus in culture; conditions: Staphylococcus aureus, read-out: Minimum Inhibitory concentration
B. subtilis [12] = test: microbe, parasite or virus in culture; conditions: Bacillus subtilis, read-out: Minimum Inhibitory concentration
S. pneumonia [13] = test: microbe, parasite or virus in culture; conditions: Streptococcus pneumoniae, read-out: Minimum Inhibitory concentration
Kleibsella pneumonia [14] = test: organism not typed; conditions: read-out: Minimum Inhibitory concentration
[15] = S. pneumonia, microdilution, overnight 37° C., mean±SD, n=3
[16] = S. mutans, microdilution, overnight 37° C., mean±SD, n=3
[17] = Kleibsella pneumonia, microdilution, overnight 37° C., mean±SD, n=3
[18] = E. coli, microdilution, overnight 37° C., mean±SD, n=3
[19] = B. subtilis, microdilution, overnight 37° C., mean±SD, n=3

What does the source list for CC[C@H](C)[C@H](NC(=O)[C@H](CCCNC(=N)N)NC(=O)[C@H](CCCCN)NC(=O)[C@]1(C)CCCC=CCCC[C@](C)(NC(=O)[C@H](CCCCN)NC(=O)[C@H](CCC(=O)O)NC(=O)[C@H](CCCCN)NC(=O)[C@H](CO)NC(=O)[C@H](CCCCN)NC(=O)[C@H](CCCNC(=N)N)NC(=O)[C@H](Cc2ccccc2)NC(=O)[C@H](Cc2ccccc2)NC(=O)CNC(=O)CNC(=O)[C@H](CC(N)=O)NC(=O)[C@H](CCCNC(=N)N)NC(=O)[C@H](Cc2ccccc2)NC(=O)[C@@H](NC(=O)[C@H](C)NC(=O)[C@@H](NC(=O)[C@H](CC(=O)O)NC(=O)[C@H](CCCCN)NC(=O)[C@H](CCC(=O)O)NC(=O)CNC(=O)[C@@H](NC(=O)[C@H](CO)NC(=O)[C@@H]2CCCN2C(=O)[C@@H](N)CC(C)C)[C@@H](C)O)[C@@H](C)O)C(C)C)C(=O)NCC(=O)N[C@@H](CCCCN)C(=O)N[C@@H](CCC(=O)O)C(=O)N1)C(=O)N[C@H](C(N)=O)C(C)C [ssTAMP] (H-LPSTGEKDTAVFRNGGFFRKSKEK[S5]GKE[S5]KRIV-NH2; staple 25-29; N-terminus assumed)?
Minimum Inhibitory concentration (S. pneumonia [1]): 10.42 ± 2.08 µg/mL; Minimum Inhibitory concentration (S. pneumonia [1]; [15]): 10.42 ± 2.08 µg/mL; Minimum Inhibitory concentration (S. mutans [2]): 8.33 ± 2.08 µg/mL; Minimum Inhibitory concentration (S. mutans [2]; [16]): 8.33 ± 2.08 µg/mL; Zone of inhibition (Staphylococcus aureus): 9.60±0.32 mm; Zone of inhibition (Bacillus subtilis): 20.63±0.85 mm; Zone of inhibition (Streptococcus pneumonia): 20.17±0.72 mm; Zone of inhibition (Streptococcus mutans): 22.23±1.39 mm; Zone of inhibition (Escherichia coli): 24.30±1.08 mm; Minimum Inhibitory concentration (Kleibsella pneumonia [3]): 5.21 ± 1.042 µg/mL; Minimum Inhibitory concentration (Kleibsella pneumonia [3]; [17]): 5.21 ± 1.042 µg/mL; IC50, cytotoxicity by MTT assay (A549 lung cancer cells): 265.0 µg/mL; cells viable (A549 lung cancer cells; 250 μg/ml): more than 50%; IC50, cytotoxicity by MTT assay [4]: 558.2 µg/mL; cells viable ([4]; 250 μg/ml): more than 50%; Minimum Inhibitory concentration (S. aureus [5]): 12.50 ± 0.000 µg/mL; Minimum Inhibitory concentration (S. aureus [5]; S. aureus, microdilution, overnight 37° C., mean±SD, n=3): 12.50 ± 0.000 µg/mL; Minimum Inhibitory concentration (E. coli [6]): 5.21 ± 1.05 µg/mL; Minimum Inhibitory concentration (E. coli [6]; [18]): 5.21 ± 1.05 µg/mL; Minimum Inhibitory concentration (B. subtilis [7]): 8.33 ± 2.08 µg/mL; Minimum Inhibitory concentration (B. subtilis [7]; [19]): 8.33 ± 2.08 µg/mL; Zone of inhibition (Kleibsella pneumonia [8]): 23.47±1.40 mm

What does the source list for NC[C@H]1O[C@H](O[C@H]2[C@H](O)[C@@H](O[C@H]3O[C@H](CO)[C@@H](O)[C@H](N)[C@H]3O)[C@H](N)C[C@@H]2N)[C@H](O)[C@@H](O)[C@@H]1O [Kanamycin]?
MIC (S. mutans [9]): 1.04 ± 0.21 µg/mL (≈ 2.15 µM); Minimum Inhibitory concentration (S. pneumonia [1]; [15]): 1.67 ± 0.42 µg/mL; MIC (E. coli [10]): 1.46 ± 0.55 µg/mL (≈ 3.01 µM); MIC (S. aureus [11]): 1.67 ± 0.42 µg/mL (≈ 3.45 µM); Minimum Inhibitory concentration (S. mutans [2]; [16]): 1.04 ± 0.21 µg/mL; Zone of inhibition (Staphylococcus aureus): 16.07 ± 0.45 mm; zone of inhibition at 10 µg/mL (Staphylococcus aureus; Staphylococcus aureus): 16.1 ± 0.45 mm; Zone of inhibition (Bacillus subtilis): 16.40 ± 0.46 mm; zone of inhibition at 10 µg/mL (Bacillus subtilis; Bacillus subtilis): 16.4 ± 0.46 mm; Zone of inhibition (Streptococcus pneumonia): 15.70 ± 0.4 mm; zone of inhibition at 10 µg/mL (Streptococcus pneumonia; Streptococcus pneumoniae): 15.7 ± 0.4 mm; Zone of inhibition (Streptococcus mutans): 18.37 ± 0.58 mm; zone of inhibition at 10 µg/mL (Streptococcus mutans; Streptococcus mutans): 18.4 ± 0.58 mm; Zone of inhibition (Escherichia coli): 14.90 ± 0.25 mm; zone of inhibition at 10 µg/mL (Escherichia coli; Escherichia coli): 14.9 ± 0.25 mm; Minimum Inhibitory concentration (Kleibsella pneumonia [3]; [17]): 1.25 ± 0.00 µg/mL; MIC (B. subtilis [12]): 1.67 ± 0.42 µg/mL (≈ 3.45 µM); MIC (S. pneumonia [13]): 1.67 ± 0.42 µg/mL (≈ 3.45 µM); Minimum Inhibitory concentration (E. coli [6]; [18]): 1.46 ± 0.55 µg/mL; Minimum Inhibitory concentration (B. subtilis [7]; [19]): 1.67 ± 0.42 µg/mL; Zone of inhibition (Kleibsella pneumonia [8]): 15.10 ± 0.74 mm; zone of inhibition at 10 µg/mL (Kleibsella pneumonia [8]): 15.1 ± 0.74 mm; MIC (Kleibsella pneumonia [14]): 1.25 µg/mL (≈ 2.58 µM)
